Experimental data reported in PubChem BioAssay (NCI).
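Method: 48-hour compound exposure of cells in 96-well plates, five concentrations, linear interpolation of endpoints. At the TGI there is no net growth.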

Key:
Test in all cases: DTP human tumour cell line panel, 48 h
786-0 renal = test system: 786-0 renal
A549 NSCLC = test system: A549 NSCLC
ACHN renal = test system: ACHN renal
CAKI-1 renal = test system: CAKI-1 renal
CCRF-CEM leukemia = test system: CCRF-CEM leukemia
COLO 205 colon = test system: COLO 205 colon
DLD-1 colon = test system: DLD-1 colon
DMS 114 small cell lung = test system: DMS 114 small cell lung
DMS 273 small cell lung = test system: DMS 273 small cell lung
EKVX NSCLC = test system: EKVX NSCLC
HCC-2998 colon = test system: HCC-2998 colon
HCT-116 colon = test system: HCT-116 colon
HCT-15 colon = test system: HCT-15 colon
HL-60(TB) leukemia = test system: HL-60(TB) leukemia
HOP-62 NSCLC = test system: HOP-62 NSCLC
HT29 colon = test system: HT29 colon
K-562 leukemia = test system: K-562 leukemia
KM12 colon = test system: KM12 colon
LOX IMVI melanoma = test system: LOX IMVI melanoma
M19-MEL melanoma = test system: M19-MEL melanoma
MALME-3M melanoma = test system: MALME-3M melanoma
MOLT-4 leukemia = test system: MOLT-4 leukemia
NCI-H226 lung = test system: NCI-H226 lung
NCI-H23 lung = test system: NCI-H23 lung
NCI-H460 lung = test system: NCI-H460 lung
NCI-H522 lung = test system: NCI-H522 lung
OVCAR-3 ovarian = test system: OVCAR-3 ovarian
OVCAR-4 ovarian = test system: OVCAR-4 ovarian
OVCAR-5 ovarian = test system: OVCAR-5 ovarian
OVCAR-8 ovarian = test system: OVCAR-8 ovarian
RPMI-8226 leukemia = test system: RPMI-8226 leukemia
SF-268 CNS = test system: SF-268 CNS
SF-295 CNS = test system: SF-295 CNS
SF-539 CNS = test system: SF-539 CNS
SK-MEL-2 melanoma = test system: SK-MEL-2 melanoma
SK-MEL-28 melanoma = test system: SK-MEL-28 melanoma
SK-MEL-5 melanoma = test system: SK-MEL-5 melanoma
SN12C renal = test system: SN12C renal
SNB-19 CNS = test system: SNB-19 CNS
SNB-75 CNS = test system: SNB-75 CNS
SNB-78 CNS = test system: SNB-78 CNS
SR leukemia = test system: SR leukemia
SW-620 colon = test system: SW-620 colon
TK-10 renal = test system: TK-10 renal
U251 CNS = test system: U251 CNS
UACC-257 melanoma = test system: UACC-257 melanoma
UO-31 renal = test system: UO-31 renal
XF 498 CNS = test system: XF 498 CNS
LXFL 529 NSCLC = test system: LXFL 529 NSCLC
RXF 393 renal = test system: RXF 393 renal
SK-OV-3 ovarian = test system: SK-OV-3 ovarian
UACC-62 melanoma = test system: UACC-62 melanoma
HOP-92 NSCLC = test system: HOP-92 NSCLC
IGROV1 ovarian = test system: IGROV1 ovarian
KM20L2 colon = test system: KM20L2 colon
M14 melanoma = test system: M14 melanoma

Measured: TGI

COc1ccccc1/C=C1\C(=O)N(C(=O)c2ccc(NC(C)=O)cc2)N=C1C
not listed: LXFL 529 NSCLC | RXF 393 renal | SK-OV-3 ovarian | UACC-62 melanoma | HOP-92 NSCLC | IGROV1 ovarian | KM20L2 colon | M14 melanoma
> 100 µM: all other assays above

CN(C)CCCNC(=O)c1cccc2ccccc12
not listed: 786-0 renal | CAKI-1 renal | COLO 205 colon | EKVX NSCLC | HCC-2998 colon | HOP-62 NSCLC | M19-MEL melanoma | OVCAR-5 ovarian | RPMI-8226 leukemia | SR leukemia | UO-31 renal | HOP-92 NSCLC | IGROV1 ovarian | KM20L2 colon | M14 melanoma
> 100 µM: all other assays above

OCCCCOC(c1ccccc1)(c1ccccc1)c1ccccc1
not listed: EKVX NSCLC | M19-MEL melanoma | SK-MEL-2 melanoma | SNB-19 CNS
> 100 µM: all other assays above
